Assay results reported in patent US10844077B2, “Thiazolyl-containing compounds for treating proliferative diseases” (Dana-Farber Cancer Institute, Inc., priority 2014, dated 2020).
Several values for one entry are separate records, joined by “and”; a condition that tells them apart may be missing. Equal values may be shown once.

How the values were obtained:
Experiment in all cases: KINATIV assay
Format in all cases: cell-based
Conditions in all cases: 1 μM, 90 minutes, BCWM.1 cells
AMPKa1 = AMPKa1 (Homo sapiens (Human), UniProt Q13131)
Protocol: (§1) The cells were harvested and lysed. The lysates were directly labeled with an ATP-biotin probe. Bound kinases were identified and quantitated by ACTIVX as described in Patricelli et al., Biochemistry, 2007, 46(2): 350-358. The compounds were tested in duplicates against duplicate or quadruplicate control samples.

ATR = ATR (Homo sapiens (Human), UniProt Q13535)
Protocol: as §1

CASK = CASK (Homo sapiens (Human), UniProt O14936)
Protocol: as §1

CK1g2 = CK1g2 (Homo sapiens (Human), UniProt P78368)
Protocol: as §1

CK2a2 = CK2a2 (Homo sapiens (Human), UniProt P19784)
Chain of CK2a2 (P19784 whole entry): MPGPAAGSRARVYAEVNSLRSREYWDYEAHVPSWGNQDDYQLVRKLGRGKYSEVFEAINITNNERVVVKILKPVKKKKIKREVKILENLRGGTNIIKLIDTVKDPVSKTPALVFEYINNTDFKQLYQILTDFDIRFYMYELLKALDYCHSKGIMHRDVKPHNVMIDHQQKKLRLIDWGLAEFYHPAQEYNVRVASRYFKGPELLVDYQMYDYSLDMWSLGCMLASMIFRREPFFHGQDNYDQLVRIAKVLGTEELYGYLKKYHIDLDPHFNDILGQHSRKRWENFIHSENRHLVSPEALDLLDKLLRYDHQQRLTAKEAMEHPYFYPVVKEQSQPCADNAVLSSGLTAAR
Protocol: as §1

CLK3 = CLK3 (Homo sapiens (Human), UniProt P49761)
Protocol: as §1

CaMK1d = CaMK1d (Homo sapiens (Human), UniProt Q8IU85)
Chain of CaMK1d (Q8IU85 whole entry): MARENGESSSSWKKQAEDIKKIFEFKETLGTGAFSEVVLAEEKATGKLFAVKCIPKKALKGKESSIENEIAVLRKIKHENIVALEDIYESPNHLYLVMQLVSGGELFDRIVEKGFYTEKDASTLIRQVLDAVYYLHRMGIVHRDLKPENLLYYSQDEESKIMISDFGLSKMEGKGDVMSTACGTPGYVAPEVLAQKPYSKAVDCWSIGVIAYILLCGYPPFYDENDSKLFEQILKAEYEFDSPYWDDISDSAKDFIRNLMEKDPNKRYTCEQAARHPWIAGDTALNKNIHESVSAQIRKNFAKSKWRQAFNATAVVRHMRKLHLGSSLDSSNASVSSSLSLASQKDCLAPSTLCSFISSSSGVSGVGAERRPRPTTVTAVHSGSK
Protocol: as §1

[1] = test system: CaMK2a, CaMK2b, CaMK2d, CaMK2g
Protocol: as §1

CaMK2d = CaMK2d (Homo sapiens (Human), UniProt Q13557)
Protocol: as §1

CaMK2g = CaMK2g (Homo sapiens (Human), UniProt Q13555)
Chain of CaMK2g (Q13555 whole entry): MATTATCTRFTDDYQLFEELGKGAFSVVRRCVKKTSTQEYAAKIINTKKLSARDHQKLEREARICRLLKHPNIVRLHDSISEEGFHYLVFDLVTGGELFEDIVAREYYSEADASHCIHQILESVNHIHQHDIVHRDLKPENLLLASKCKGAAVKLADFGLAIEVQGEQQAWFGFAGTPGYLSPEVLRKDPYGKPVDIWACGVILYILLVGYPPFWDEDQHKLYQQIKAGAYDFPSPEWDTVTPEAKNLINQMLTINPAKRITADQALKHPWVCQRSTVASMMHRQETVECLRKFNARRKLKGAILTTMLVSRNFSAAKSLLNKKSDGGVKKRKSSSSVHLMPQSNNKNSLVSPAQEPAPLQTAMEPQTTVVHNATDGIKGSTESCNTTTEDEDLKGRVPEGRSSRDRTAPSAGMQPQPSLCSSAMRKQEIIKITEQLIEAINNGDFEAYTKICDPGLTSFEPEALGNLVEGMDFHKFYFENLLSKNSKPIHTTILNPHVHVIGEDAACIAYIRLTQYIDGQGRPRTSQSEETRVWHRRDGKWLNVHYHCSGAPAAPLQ
Protocol: as §1

CaMK4 = CaMK4 (Homo sapiens (Human), UniProt Q16566)
Protocol: as §1

Erk1 = Erk1 (Homo sapiens (Human), UniProt P27361)
Protocol: as §1

Erk5 = Erk5 (Homo sapiens (Human), UniProt Q13164)
Protocol: as §1

FES = FES (Homo sapiens (Human), UniProt P07332)
Protocol: as §1

HPK1 = HPK1 (Homo sapiens (Human), UniProt Q92918)
Chain of HPK1 (Q92918 whole entry): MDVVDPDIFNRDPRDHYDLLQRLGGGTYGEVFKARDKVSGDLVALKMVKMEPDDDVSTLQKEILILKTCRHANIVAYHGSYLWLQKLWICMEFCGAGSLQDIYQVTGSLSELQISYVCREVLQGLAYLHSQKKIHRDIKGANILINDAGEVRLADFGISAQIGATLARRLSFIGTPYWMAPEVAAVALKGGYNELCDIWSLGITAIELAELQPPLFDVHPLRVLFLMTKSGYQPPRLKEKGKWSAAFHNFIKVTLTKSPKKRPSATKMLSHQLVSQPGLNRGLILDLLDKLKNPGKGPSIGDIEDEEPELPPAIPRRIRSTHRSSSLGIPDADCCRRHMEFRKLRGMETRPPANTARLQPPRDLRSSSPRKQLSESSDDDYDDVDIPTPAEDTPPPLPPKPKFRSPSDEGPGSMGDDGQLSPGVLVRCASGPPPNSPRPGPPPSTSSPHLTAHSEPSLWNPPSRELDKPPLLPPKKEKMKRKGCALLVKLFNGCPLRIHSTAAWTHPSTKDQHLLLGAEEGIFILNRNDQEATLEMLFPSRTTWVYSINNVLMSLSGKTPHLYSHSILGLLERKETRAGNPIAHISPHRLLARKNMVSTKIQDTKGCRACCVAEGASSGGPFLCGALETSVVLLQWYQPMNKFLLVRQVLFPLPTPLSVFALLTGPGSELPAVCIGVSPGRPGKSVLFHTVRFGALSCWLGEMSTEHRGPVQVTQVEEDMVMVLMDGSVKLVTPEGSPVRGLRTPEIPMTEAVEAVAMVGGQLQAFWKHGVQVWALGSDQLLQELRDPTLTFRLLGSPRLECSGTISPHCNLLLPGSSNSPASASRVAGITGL
Protocol: as §1

IKKe = IKKe (Homo sapiens (Human), UniProt Q14164)
Protocol: as §1

IKKe, TBK1 = test system: IKKe, TBK1
Protocol: as §1

JNK1, JNK2, JNK3 = test system: JNK1, JNK2, JNK3
Protocol: as §1

LATS2 = LATS2 (Homo sapiens (Human), UniProt Q9NRM7)
Chain of LATS2 (Q9NRM7 whole entry): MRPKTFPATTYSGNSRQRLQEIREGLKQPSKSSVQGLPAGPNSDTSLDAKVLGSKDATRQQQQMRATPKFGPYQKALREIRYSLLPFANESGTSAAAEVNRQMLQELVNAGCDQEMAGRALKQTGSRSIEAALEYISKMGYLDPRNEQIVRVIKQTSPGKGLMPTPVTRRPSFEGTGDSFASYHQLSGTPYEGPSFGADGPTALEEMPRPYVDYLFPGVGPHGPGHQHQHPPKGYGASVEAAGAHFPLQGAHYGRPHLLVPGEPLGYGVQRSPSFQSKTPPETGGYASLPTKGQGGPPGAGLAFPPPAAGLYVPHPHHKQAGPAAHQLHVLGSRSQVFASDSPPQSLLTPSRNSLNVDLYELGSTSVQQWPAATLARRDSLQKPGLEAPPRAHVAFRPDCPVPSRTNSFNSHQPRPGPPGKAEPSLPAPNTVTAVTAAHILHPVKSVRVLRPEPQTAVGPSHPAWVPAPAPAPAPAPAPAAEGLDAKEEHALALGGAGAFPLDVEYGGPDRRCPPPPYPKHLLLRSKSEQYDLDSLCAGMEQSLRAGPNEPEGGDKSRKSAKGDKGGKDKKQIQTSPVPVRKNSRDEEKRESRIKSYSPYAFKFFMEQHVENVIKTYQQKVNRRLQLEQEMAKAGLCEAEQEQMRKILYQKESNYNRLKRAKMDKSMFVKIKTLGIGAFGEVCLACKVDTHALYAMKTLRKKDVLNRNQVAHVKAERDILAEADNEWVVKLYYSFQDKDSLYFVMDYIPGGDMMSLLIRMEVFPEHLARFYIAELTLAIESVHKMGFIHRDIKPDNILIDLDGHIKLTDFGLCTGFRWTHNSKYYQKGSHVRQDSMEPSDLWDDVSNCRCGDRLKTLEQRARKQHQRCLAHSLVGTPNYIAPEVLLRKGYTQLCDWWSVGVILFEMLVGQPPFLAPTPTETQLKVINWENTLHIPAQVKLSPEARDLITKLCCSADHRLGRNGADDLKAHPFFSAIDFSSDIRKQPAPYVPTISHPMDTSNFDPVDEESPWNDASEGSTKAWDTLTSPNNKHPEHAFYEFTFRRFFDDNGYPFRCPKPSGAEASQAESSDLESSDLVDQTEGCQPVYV
Protocol: as §1

MAP2K7 = MAP2K7 (Homo sapiens (Human), UniProt O14733)
Protocol: as §1

MARK1, MARK2 = test system: MARK1, MARK2
Protocol: as §1

MLKL = MLKL (Homo sapiens (Human), UniProt Q8NB16)
Chain of MLKL (Q8NB16 whole entry): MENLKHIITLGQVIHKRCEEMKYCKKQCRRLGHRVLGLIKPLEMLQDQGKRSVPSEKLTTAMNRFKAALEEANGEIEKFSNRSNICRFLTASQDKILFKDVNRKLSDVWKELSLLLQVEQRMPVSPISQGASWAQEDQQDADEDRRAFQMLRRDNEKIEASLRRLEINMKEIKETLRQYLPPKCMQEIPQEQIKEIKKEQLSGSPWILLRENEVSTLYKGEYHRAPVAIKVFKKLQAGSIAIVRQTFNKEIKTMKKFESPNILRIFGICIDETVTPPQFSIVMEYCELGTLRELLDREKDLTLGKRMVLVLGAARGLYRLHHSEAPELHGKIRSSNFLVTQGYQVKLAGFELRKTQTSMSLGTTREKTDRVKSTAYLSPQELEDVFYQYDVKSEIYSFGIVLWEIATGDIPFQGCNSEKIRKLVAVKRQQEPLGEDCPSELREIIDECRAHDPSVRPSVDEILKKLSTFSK
Protocol: as §1

MST4, YSK1 = test system: MST4, YSK1
Protocol: as §1

MYO3A, MYO3B = test system: MYO3A, MYO3B
Protocol: as §1

NEK7 = NEK7 (Homo sapiens (Human), UniProt Q8TDX7)
Chain of NEK7 (Q8TDX7 whole entry): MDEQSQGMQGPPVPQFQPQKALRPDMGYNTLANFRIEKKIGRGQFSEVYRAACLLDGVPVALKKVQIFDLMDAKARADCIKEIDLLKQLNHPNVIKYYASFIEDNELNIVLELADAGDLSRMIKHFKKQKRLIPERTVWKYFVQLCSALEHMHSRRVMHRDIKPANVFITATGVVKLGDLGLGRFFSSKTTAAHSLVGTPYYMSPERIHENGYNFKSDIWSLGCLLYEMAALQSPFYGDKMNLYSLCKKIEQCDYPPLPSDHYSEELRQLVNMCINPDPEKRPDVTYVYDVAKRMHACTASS
Protocol: as §1

NEK8 = NEK8 (Homo sapiens (Human), UniProt Q86SG6)
Protocol: as §1

NEK9 = NEK9 (Homo sapiens (Human), UniProt Q8TD19)
Chain of NEK9 (Q8TD19 whole entry): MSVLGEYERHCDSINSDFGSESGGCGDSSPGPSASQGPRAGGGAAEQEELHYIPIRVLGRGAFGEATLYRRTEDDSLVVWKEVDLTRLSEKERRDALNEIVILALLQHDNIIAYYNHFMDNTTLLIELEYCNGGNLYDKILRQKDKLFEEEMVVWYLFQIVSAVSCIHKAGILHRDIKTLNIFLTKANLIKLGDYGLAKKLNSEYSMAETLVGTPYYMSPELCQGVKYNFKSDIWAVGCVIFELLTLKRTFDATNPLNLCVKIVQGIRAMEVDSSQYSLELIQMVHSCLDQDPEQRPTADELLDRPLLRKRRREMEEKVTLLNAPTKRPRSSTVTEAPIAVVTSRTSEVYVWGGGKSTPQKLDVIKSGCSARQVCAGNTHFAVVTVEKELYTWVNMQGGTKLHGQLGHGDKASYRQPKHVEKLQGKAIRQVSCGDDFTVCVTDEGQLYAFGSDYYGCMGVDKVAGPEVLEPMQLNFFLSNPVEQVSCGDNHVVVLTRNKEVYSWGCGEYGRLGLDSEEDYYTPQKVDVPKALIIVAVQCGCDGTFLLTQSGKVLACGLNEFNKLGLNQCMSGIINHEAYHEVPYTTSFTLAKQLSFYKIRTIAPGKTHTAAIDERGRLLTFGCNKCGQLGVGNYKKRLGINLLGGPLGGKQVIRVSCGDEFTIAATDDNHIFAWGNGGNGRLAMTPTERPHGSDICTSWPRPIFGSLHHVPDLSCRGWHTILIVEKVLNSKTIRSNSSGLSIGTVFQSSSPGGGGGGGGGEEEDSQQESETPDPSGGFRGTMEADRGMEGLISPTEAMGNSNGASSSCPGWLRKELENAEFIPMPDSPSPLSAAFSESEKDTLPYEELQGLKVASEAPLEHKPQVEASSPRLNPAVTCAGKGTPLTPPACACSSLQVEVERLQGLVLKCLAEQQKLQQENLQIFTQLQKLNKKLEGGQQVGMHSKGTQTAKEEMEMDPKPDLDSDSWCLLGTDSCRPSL
Protocol: as §1

PHKg2 = PHKg2 (Homo sapiens (Human), UniProt P15735)
Protocol: as §1

PIK3C2B = PIK3C2B (Homo sapiens (Human), UniProt O00750)
Protocol: as §1

PKD1, PKD2 = test system: PKD1, PKD2
Protocol: as §1

PKN1 = PKN1 (Homo sapiens (Human), UniProt Q16512)
Protocol: as §1

RSK1 domain2 = RSK1 domain2 (Homo sapiens (Human), UniProt Q15418)
Protocol: as §1

RSK2 domain2 = RSK2 domain2 (Homo sapiens (Human), UniProt P51812)
Protocol: as §1

RSK4 domain1 = RSK4 domain1 (Homo sapiens (Human), UniProt Q9UK32)
Protocol: as §1

RSKL1 = RSKL1 (Homo sapiens (Human), UniProt Q96S38)
Protocol: as §1

SRPK1, SRPK2 = test system: SRPK1, SRPK2
Protocol: as §1

TYK2 domain2 = TYK2 domain2 (Homo sapiens (Human), UniProt P29597)
Protocol: as §1

ULK1 = ULK1 (Homo sapiens (Human), UniProt O75385)
Protocol: as §1

Wnk1, Wnk2, Wnk3 = test system: Wnk1, Wnk2, Wnk3
Protocol: as §1

p38d, p38g = test system: p38d, p38g
Protocol: as §1

With `C=CC(=O)N1CCC(Cn2ccc(Nc3ncc(C(=O)Nc4c(C)cccc4Cl)s3)n2)C1` (stereo not shown) [II-1] the “% change of MS signal compared to control sample” value (from here on “% change of MS signal”) (AMPKa1) was 5.1%, the “% change of MS signal” value (ATR) was −55.3% and the “% change of MS signal” value (CASK) was 29.4%. For the same compound, the “% change of MS signal” value (CK1g2) was −1.1%, the “% change of MS signal” value (CK2a2) was 13.8% and the “% change of MS signal” value (CLK3) was −22.6%. The “% change of MS signal” value (CaMK1d) was −7.9% and −2.8%, the “% change of MS signal” value [1] was 2.5% and the “% change of MS signal” value (CaMK2d) was −14.8%. For the same compound, the “% change of MS signal” value (CaMK2g) was −17.5%, the “% change of MS signal” value (CaMK4) was −10.3% and the “% change of MS signal” value (Erk1) was −17.6%. For the same compound, the “% change of MS signal” value (Erk5) was −14.2%, the “% change of MS signal” value (FES) was −15.0% and the “% change of MS signal” value (HPK1) was 23.0% and 12.1%. For the same compound, the “% change of MS signal” value (IKKe) was −1.0%, the “% change of MS signal” value (IKKe, TBK1) was −27.2% and the “% change of MS signal” value (JNK1, JNK2, JNK3) was −23.5%. The “% change of MS signal” value (LATS2) was −2.9%, the “% change of MS signal” value (MAP2K7) was −0.6% and the “% change of MS signal” value (MARK1, MARK2) was 20.9%. For the same compound, the “% change of MS signal” value (MLKL) was −0.8%, the “% change of MS signal” value (MST4, YSK1) was 9.2% and the “% change of MS signal” value (MYO3A, MYO3B) was 12.9%. The “% change of MS signal” value (NEK7) was −8.5%, the “% change of MS signal” value (NEK8) was 6.5% and the “% change of MS signal” value (NEK9) was −1.0% and −0.1%. The “% change of MS signal” value (PHKg2) was −9.1%, the “% change of MS signal” value (PIK3C2B) was −5.8% and the “% change of MS signal” value (PKD1, PKD2) was −19.8%. For the same compound, the “% change of MS signal” value (PKN1) was 20.9%, the “% change of MS signal” value (RSK1 domain2) was 14.0% and the “% change of MS signal” value (RSK2 domain2) was 9.7%. The “% change of MS signal” value (RSK4 domain1) was −22.4%, the “% change of MS signal” value (RSKL1) was 13.7% and the “% change of MS signal” value (SRPK1, SRPK2) was 0.0%. The “% change of MS signal” value (TYK2 domain2) was −19.0%, the “% change of MS signal” value (ULK1) was 19.7% and the “% change of MS signal” value (Wnk1, Wnk2, Wnk3) was 2.4%. The “% change of MS signal” value (p38d, p38g) was −6.6%.
